Earlier results in patent US20250275953A1, “VODOBATINIB FOR REDUCING PROGRESSION OF PARKINSON'S DISEASE” (Sun Pharma Advanced Research Company Ltd., priority 2022, published 2025).

Settings: nilotinib 150 and 300 mg; cited from earlier work

SMILES: Cc1cn(-c2cc(NC(=O)c3ccc(C)c(Nc4nccc(-c5cccnc5)n4)c3)cc(C(F)(F)F)c2)cn1 [Nilotinib, nilotinib]
- efficacy in Parkinson's disease patients: not efficacious
